These results are taken from patent publication US5866558A, “6-alkynyl steroids” (Regents of the University of Minnesota, priority 1997, dated 1999).

Several values for one entry are separate records, joined by “and”; a condition that tells them apart may be missing. Equal values may be shown once. Read-outs that look alike come from different tables or passages of the source.

Data set [1] addresses T1, aromatase (Homo sapiens, UniProt P11511).
T1 sequence (P11511 1-503): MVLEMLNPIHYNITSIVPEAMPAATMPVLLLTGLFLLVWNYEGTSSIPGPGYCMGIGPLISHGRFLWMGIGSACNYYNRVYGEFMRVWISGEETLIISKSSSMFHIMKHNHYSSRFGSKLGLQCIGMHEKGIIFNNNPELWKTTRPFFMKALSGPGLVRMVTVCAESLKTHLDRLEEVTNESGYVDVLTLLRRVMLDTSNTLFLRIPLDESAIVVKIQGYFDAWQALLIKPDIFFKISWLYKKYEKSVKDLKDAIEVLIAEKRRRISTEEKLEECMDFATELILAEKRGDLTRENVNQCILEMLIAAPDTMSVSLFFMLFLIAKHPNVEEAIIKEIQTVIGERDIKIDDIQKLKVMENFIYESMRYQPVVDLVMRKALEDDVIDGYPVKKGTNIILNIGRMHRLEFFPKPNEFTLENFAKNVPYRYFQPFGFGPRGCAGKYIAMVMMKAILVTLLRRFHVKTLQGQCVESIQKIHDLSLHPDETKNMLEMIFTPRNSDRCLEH
Put plainly: biochemical. The data set is classed as biochemical. Further details: Microsomes were obtained from human placentas after normal deliveries; from tissue; host or cells: human placenta, microsomes (washed twice, lyophilized). Here is the method:
(§1) Test A. Enzyme Affinity Assay
(§2) Microsomes were obtained from human placentas after normal deliveries and prepared as described previously (Ryan, K. J. "Biological aromatization of steroids" J Biol. Chem. 1959, 234, 266-272). Following isolation of the microsomal pellets (washed twice), they were lyophilized and stored at -20° C.

Data set [2] in a line: Incubation with rat liver homogenates (prodrug dehydration). The data set is classed as in vitro ADME. To be noted: gives compound (4). The source says: Accordingly, the invention includes a compound of formula III, wherein R to R^5 are defined as above; or a pharmaceutically acceptable salt thereof. The invention also includes a pharmaceutical composition comprising a compound of formula III; or a pharmaceutically acceptable salt thereof; and a pharmaceutically acceptable diluent or carrier. Because alcohols of formula III are capable of acting as prodrugs for compounds of formula I, it may be advantageous to use an alcohol of formula III in place of a corresponding compound of formula I in any of the methods disclosed herein. Accordingly, the invention includes a method for treating a disease in a human or other mammal in need thereof in which aromatase has been implicated and inhibition of its action is desired, comprising administering to said human or mammal an effective amount of a compound of formula III; or a pharmaceutically acceptable salt thereof. The invention also includes a method for inhibiting aromatase in a mammal comprising administering to said mammal an effective amount of a compound of formula III; or a pharmaceutically acceptable salt thereof.

Data set [3] deals with T1, aromatase. The class given is biochemical. Also noted: Microsomes were obtained from human placentas after normal deliveries; from tissue; host or cells: human placenta, microsomes (washed twice, lyophilized).
Data set [4] addresses T1, aromatase. Put plainly: Aromatase inhibition, overall results of tests A, B, and C. The data set is classed as biochemical. Also noted: Microsomes were obtained from human placentas after normal deliveries; from tissue; host or cells: human placenta, microsomes (washed twice, lyophilized). As for the experimental part:
as §1, §2
Test B. Evaluation of Time-Dependent Inhibition
This determination requires measurements at initial velocities of enzyme reaction. The enzyme activity is determined following different preincubation times at various inhibitor concentrations when assayed at a substrate concentration of at least ten times the Km of androstenedione.

Data set [5] has as its target T1, aromatase. Put plainly: Test C. Ki Determination / enzyme inactivation kinetics (Kitz and Wilson). To be noted: for T1/2 of enzyme inhibition / KI (inactivation): Table 2; for KI (inactivation): read-out: App. Ki(inact), apparent Ki for inactivation; for kinact: read-out: kcat.
Substrate in data set [6]: C[C@]12CCC(=O)C=C1CC[C@@H]1[C@@H]2CC[C@]2(C)C(=O)CC[C@@H]12
As to the kind of experiment: purified protein, by the assay type. To be noted: other: natural substrate.

The IC50 is the concentration that inhibits the measured activity by half. By Km is commonly meant the substrate concentration at which the rate is half of its maximum.

Turning to `C#CC[C@H]1C[C@@H]2[C@H](CC[C@]3(C)C(=O)CC[C@@H]23)[C@@]2(C)CCC(=O)C=C12` [6α-propynyl compound, 6α-(2-propynyl)androst-4-ene-3,17-dione], at aromatase [1], the “enzyme affinity compared with other known inhibitors” value is reported as “greater enzyme affinty than other known inhibitors”.

For `C#CC[C@@H]1C[C@H]2[C@@H]3CCC(=O)[C@@]3(C)CC[C@@H]2[C@@]2(C)CCC(=O)C[C@]12O` [compound (3)], the “dehydration in the presence of rat liver homogenates” value in data set [2] is recorded as “found to dehydrate in the presence of the homogenates to give compound (4)”.

With `C#CC[C@]12CCC(=O)C=C1CC[C@@H]1[C@@H]2CC[C@]2(C)C(=O)CC[C@@H]12` [10β-Propargyl ED, 10-(2-propynyl)estr-4-ene-3,17-dione], the “Type of Inhibition” value at aromatase [3] is recorded as “Irreversible/Inactivation”. The IC50 on aromatase [1] (IC50) is 42 nM. The Ki on aromatase [1] (Ki (apparent)) is 26.7 nM.

Consider `C#CC[C@@H]1C[C@@H]2[C@H](CC[C@]3(C)C(=O)CC[C@@H]23)[C@@]2(C)CCC(=O)C=C12` [6β-Propargyl AD, 6β-Propargyl-4-androstene-3,17-dione], for which the “aromatase inhibitory properties, in words” value at aromatase [4] is “superior to other known aromatase inhibitors”. The Ki at aromatase [1] (Ki (apparent)) was 9.8 nM and 87.5 nM. In addition, at aromatase [5], the “T1/2 of enzyme inhibition” value was found to be 7.7 min, the KI (inactivation) turned out to be 46.8 nM and the kinact worked out at 0.0015 s⁻¹. Besides, the “irreversibility / mechanism of inhibition” value at aromatase [5] (test C) was “irreversibly bound to the enzyme”. Moreover, the “affinity for the enzyme site relative to natural substrate androstenedione” value at aromatase [5] (vs androstenedione Km) was “about five times greater”.

With `C[C@]12CCC(=O)C(O)=C1CC[C@@H]1[C@@H]2CC[C@]2(C)C(=O)CC[C@@H]12` [4-Hydroxy AD, 4-hydroxyandrostenedione], the “Type of Inhibition” value on aromatase [3] was “Irreversible/Inactivation”. This molecule came in with an IC50 against aromatase [1] (IC50) of 250 nM. Also, on aromatase [1] (read-out: Ki (apparent)), the Ki worked out at 40.8 nM.

As for `C#CC[C@@H]1C[C@@H]2[C@H](CC[C@]3(C)C(=O)CC[C@@H]23)[C@H]2CCC(=O)C=C12` [6β-Propargyl ED, 6β-Propargyl-4-estrene-3,17-dione], the “Type of Inhibition” value on aromatase [3] is reported as “Irreversible/Inactivation”. The IC50 on aromatase [1] (IC50) was found to be 98 nM. Further, the Ki at aromatase [1] (Ki (apparent)) turned out to be 43.5 nM. For the same molecule, at aromatase [5], the “T1/2 of enzyme inhibition” value was 9.75 min, the KI (inactivation) was 15.4 nM and the kinact was determined as 0.0012 s⁻¹.

As for `C#CC[C@H]1C[C@@H]2[C@H](CC[C@]3(C)C(=O)CC[C@@H]23)[C@H]2CCC(=O)C=C12` [6α-Propargyl ED], the “Type of Inhibition” value at aromatase [3] is “Reversible”. Moreover, on aromatase [1] (IC50), the IC50 came out at 430 nM.

Take `C[C@]12C=CC(=O)C=C1C=C[C@@H]1[C@@H]2CC[C@]2(C)C(=O)CC[C@@H]12` [1,4,6-ATD, androst-1,4,6-triene-3,17-dione]: the “Type of Inhibition” value on aromatase [3] (Table 1) was “Irreversible/Inactivation”. At aromatase [1] (Table 1, apparent Ki, read-out: Ki (apparent)), the Ki came to 136 nM. Besides, the IC50 at aromatase [1] (Table 1, human placental microsomes, read-out: IC50) amounted to 890 nM.

B1: aromatase (Homo sapiens) (protein)
chain: T1 sequence (P11511 1-503)
Take B1: the Km in data set [6] amounted to 0.055 µM.
